According to article PMC5762315, “Inhibition of polo-like kinase 4 (PLK4): a new therapeutic option for rhabdoid tumors and pediatric medulloblastoma” (Oncotarget, 2017):
Where “and” joins values, the source holds several entries; their conditions need not be identical. Equal values may be shown once.

Tests used:
Assay in all cases: biochemical
Type in all cases: biochemical
various kinases [1] = target: various kinases (Homo sapiens, UniProt P00533, T790M); details: EGFR (ErbB1) T790M
various kinases [2] = target: T1, various kinases (Homo sapiens, UniProt Q13188); details: kinase STK3 (MST2); ZLYTE
T1 sequence (Q13188 1-491): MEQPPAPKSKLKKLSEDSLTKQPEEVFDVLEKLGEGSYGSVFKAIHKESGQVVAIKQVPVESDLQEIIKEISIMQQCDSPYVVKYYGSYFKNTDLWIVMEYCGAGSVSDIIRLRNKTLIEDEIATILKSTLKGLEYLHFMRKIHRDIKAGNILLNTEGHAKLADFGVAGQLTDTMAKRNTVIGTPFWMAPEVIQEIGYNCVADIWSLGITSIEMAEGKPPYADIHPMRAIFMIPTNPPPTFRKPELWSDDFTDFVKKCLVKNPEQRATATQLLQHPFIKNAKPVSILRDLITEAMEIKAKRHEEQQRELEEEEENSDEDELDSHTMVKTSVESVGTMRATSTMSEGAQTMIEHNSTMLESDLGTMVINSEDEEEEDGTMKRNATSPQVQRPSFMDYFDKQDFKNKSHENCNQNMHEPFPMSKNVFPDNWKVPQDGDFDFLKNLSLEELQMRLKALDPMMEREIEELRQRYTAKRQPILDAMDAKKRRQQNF

various kinases [3] = target: various kinases (Homo sapiens, UniProt Q9UM73); details: ALK
various kinases [4] = target: various kinases (Homo sapiens, UniProt P42679); details: MATK (HYL)
various kinases [5] = target: various kinases (Homo sapiens, UniProt P16591); details: FER
various kinases [6] = target: various kinases (Homo sapiens, UniProt P00533, L858R); details: EGFR (ErbB1) L858R
various kinases [7] = target: various kinases (Homo sapiens, UniProt P06213); details: INSR
various kinases [8] = target: various kinases (Homo sapiens, UniProt O14920); details: IKBKB (IKK beta)
various kinases [9] = target: T2, various kinases (Homo sapiens, UniProt Q9BZL6); details: kinase PRKD2 (PKD2); ZLYTE
T2 sequence (Q9BZL6 1-878): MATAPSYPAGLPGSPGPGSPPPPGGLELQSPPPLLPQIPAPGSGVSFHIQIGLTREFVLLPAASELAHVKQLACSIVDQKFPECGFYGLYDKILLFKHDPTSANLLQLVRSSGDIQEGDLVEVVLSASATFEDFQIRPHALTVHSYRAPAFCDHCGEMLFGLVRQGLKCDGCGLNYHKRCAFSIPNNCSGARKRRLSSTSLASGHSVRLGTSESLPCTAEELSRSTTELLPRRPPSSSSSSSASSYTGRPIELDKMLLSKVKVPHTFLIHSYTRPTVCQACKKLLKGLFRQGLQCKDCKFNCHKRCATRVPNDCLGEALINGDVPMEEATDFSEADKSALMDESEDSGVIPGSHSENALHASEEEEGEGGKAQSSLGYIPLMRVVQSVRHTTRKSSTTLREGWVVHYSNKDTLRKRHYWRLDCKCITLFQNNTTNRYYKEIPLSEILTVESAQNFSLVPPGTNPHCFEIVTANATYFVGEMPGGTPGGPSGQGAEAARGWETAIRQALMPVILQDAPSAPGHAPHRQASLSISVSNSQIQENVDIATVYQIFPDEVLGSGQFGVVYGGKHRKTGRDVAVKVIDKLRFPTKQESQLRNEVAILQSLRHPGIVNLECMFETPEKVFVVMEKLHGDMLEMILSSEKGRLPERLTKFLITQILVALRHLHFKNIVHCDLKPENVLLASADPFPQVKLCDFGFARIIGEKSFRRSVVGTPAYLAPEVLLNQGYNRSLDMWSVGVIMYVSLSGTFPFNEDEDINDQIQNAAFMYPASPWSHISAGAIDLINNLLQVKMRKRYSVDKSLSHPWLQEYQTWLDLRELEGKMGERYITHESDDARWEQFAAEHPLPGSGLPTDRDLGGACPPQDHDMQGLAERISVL

various kinases [10] = target: various kinases (Homo sapiens, UniProt Q9Y4K4); details: MAP4K5 (KHS1)
various kinases [11] = target: T3, various kinases (Homo sapiens, UniProt P43403); details: kinase ZAP70; ZLYTE
T3 sequence (P43403 1-619): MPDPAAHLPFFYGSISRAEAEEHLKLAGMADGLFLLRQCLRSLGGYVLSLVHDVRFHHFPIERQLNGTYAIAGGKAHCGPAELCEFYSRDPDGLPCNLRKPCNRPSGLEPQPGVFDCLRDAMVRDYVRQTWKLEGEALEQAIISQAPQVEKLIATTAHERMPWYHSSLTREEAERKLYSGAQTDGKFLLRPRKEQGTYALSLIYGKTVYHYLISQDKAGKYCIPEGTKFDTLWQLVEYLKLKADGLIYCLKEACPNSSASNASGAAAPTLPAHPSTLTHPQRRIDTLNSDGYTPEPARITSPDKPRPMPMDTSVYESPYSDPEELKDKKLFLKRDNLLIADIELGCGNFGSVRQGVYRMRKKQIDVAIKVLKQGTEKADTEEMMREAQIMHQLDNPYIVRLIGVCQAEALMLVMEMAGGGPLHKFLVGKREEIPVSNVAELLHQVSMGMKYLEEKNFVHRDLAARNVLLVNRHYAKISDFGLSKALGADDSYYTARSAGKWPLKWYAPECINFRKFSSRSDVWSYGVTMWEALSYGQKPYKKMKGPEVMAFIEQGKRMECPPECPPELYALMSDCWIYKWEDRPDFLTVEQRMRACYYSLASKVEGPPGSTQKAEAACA

various kinases [12] = target: various kinases (Homo sapiens, UniProt Q52WX2); details: kinase SBK1; ZLYTE
various kinases [13] = target: various kinases (Homo sapiens, UniProt P00519, F317L); details: ABL1 F317L
various kinases [14] = target: various kinases (Homo sapiens, UniProt P24723); details: kinase PRKCH (PKC eta); ZLYTE
Chain of various kinases (Homo sapiens, UniProt P24723) (P24723 whole entry): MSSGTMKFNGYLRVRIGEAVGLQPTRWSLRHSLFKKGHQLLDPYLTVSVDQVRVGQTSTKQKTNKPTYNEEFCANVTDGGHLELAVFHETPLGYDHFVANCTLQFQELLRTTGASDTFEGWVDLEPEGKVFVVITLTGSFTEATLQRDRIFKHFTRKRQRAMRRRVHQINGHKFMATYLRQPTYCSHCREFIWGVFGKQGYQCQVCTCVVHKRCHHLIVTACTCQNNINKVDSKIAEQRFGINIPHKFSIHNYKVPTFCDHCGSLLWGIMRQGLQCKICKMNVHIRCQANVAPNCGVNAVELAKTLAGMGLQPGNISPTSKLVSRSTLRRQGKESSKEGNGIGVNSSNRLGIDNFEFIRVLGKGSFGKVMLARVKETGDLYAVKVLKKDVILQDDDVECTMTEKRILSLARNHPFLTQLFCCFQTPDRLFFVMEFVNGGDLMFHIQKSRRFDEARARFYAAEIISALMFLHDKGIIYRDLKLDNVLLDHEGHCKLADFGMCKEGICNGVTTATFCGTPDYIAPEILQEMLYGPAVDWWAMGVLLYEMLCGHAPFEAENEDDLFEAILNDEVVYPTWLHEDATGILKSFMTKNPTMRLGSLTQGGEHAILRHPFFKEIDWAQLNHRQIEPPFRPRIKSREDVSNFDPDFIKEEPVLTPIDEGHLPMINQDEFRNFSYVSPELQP

Chain of various kinases (Homo sapiens, UniProt Q52WX2) (Q52WX2 whole entry): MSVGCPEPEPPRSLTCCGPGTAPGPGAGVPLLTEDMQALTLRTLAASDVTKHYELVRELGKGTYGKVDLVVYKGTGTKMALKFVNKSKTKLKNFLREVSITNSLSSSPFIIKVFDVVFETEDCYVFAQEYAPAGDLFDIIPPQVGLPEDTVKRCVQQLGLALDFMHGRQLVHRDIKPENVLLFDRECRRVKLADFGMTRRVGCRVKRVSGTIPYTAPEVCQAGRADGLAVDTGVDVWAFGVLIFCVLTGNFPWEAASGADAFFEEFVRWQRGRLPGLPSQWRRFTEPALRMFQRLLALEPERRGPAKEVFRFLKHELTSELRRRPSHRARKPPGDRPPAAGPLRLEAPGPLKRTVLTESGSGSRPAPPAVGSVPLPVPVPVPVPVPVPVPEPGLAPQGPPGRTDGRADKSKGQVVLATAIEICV
Chain of various kinases (Homo sapiens, UniProt P06213) (P06213 28-1382): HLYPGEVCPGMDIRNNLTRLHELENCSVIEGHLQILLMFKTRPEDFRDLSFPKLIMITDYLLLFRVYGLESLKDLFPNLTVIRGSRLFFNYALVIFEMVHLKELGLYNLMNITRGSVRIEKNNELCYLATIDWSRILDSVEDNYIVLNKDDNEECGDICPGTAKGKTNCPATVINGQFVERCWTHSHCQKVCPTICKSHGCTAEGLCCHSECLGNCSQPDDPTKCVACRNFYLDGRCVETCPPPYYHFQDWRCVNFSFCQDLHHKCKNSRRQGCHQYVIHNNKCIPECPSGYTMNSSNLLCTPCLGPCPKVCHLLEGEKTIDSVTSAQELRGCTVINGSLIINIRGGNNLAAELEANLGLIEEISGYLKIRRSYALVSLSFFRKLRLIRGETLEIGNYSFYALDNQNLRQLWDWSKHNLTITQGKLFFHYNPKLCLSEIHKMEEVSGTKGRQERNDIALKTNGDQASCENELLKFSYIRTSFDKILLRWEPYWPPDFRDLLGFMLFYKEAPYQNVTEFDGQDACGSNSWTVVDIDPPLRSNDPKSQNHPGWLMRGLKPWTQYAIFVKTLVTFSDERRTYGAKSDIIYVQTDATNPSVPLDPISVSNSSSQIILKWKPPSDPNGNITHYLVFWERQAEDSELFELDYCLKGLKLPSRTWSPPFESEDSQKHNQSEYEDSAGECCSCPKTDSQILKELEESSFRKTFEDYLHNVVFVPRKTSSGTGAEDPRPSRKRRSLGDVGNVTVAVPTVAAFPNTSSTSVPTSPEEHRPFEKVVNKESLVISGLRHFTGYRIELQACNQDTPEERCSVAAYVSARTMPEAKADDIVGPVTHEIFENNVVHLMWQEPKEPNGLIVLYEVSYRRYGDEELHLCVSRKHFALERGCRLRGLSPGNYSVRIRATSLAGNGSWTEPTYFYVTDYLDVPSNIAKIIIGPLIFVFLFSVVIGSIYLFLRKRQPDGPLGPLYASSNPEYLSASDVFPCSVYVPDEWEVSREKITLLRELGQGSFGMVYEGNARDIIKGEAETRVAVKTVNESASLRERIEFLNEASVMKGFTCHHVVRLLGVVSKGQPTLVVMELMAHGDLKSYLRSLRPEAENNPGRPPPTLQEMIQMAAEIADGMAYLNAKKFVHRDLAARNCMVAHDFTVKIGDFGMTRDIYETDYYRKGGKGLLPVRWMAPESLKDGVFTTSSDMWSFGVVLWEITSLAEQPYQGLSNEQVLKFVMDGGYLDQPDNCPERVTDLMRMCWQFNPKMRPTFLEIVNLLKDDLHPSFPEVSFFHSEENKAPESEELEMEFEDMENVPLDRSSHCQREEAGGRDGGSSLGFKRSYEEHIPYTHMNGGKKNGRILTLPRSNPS
Chain of various kinases (Homo sapiens, UniProt P16591) (P16591 whole entry): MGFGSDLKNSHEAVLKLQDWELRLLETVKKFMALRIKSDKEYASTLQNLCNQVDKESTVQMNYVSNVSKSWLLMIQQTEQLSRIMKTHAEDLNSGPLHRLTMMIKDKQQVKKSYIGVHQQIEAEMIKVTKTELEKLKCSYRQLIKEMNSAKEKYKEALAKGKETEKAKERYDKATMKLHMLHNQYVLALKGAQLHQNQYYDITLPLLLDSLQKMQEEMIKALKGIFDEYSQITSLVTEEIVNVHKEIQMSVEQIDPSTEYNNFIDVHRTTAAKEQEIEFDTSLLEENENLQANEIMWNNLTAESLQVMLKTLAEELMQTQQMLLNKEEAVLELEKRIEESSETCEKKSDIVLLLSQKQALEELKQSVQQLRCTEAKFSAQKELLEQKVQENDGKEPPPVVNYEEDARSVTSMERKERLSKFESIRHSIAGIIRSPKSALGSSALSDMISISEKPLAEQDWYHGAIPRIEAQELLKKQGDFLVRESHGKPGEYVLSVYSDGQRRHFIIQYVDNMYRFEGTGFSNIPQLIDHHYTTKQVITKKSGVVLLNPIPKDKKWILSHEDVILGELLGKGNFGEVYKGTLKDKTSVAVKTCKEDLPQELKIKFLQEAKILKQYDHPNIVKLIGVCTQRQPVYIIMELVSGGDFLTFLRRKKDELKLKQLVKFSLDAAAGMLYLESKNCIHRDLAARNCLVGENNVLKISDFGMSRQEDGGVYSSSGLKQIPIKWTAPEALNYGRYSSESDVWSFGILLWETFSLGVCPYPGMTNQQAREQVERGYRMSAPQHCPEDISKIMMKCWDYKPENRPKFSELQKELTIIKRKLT
Chain of various kinases (Homo sapiens, UniProt P42679) (P42679 whole entry): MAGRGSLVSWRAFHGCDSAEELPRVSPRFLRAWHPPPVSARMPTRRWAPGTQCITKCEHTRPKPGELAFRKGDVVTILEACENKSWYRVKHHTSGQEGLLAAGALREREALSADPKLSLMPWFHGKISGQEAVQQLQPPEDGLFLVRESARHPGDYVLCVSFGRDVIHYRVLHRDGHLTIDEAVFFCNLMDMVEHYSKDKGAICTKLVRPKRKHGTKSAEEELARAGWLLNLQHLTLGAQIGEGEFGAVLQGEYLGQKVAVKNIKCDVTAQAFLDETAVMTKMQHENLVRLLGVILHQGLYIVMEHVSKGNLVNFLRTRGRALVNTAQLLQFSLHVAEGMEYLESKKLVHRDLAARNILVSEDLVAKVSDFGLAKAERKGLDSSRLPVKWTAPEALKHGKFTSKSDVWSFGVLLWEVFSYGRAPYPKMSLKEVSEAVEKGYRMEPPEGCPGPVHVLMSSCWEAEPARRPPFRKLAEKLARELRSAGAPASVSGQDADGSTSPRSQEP
Chain of various kinases (Homo sapiens, UniProt P00519, F317L) (P00519 whole entry F317L): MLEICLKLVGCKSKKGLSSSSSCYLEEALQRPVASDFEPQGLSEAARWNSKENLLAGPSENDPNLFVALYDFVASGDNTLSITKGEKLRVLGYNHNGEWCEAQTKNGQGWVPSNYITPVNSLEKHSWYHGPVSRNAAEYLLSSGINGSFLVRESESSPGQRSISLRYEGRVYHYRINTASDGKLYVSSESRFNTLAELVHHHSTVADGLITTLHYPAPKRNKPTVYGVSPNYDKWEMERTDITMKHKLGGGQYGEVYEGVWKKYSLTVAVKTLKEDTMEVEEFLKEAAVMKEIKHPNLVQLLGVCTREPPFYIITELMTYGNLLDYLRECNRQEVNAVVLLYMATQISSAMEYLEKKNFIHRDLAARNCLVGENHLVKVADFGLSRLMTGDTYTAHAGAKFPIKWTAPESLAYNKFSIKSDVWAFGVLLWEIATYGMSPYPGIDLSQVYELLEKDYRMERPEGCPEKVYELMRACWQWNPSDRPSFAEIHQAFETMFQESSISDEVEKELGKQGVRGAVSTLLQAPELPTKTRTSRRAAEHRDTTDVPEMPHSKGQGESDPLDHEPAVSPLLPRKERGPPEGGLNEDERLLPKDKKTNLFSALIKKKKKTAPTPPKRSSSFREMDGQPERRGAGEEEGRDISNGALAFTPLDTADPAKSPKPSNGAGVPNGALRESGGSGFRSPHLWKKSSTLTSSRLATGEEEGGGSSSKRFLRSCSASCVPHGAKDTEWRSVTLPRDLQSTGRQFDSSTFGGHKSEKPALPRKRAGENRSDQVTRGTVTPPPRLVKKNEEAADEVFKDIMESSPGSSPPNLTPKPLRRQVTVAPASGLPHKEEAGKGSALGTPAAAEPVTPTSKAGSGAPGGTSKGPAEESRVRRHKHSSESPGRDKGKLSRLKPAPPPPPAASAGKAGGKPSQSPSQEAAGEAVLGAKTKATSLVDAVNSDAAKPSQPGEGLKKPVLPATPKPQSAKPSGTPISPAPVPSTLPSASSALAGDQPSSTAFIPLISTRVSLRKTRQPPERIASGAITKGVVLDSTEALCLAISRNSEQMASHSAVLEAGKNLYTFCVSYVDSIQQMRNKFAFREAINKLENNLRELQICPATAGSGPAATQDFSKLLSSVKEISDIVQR

Q: Which results are given for `COc1ccc2c(c1)[C@]1(C[C@H]1c1ccc3c(/C=C/c4ccc(CN5C[C@@H](C)O[C@@H](C)C5)cc4)n[nH]c3c1)C(=O)N2` [CFI-400945]?
A: % Inhibition (various kinases [1]): 3%; % Inhibition Average (various kinases [2]): 13%; % Inhibition Duplicate #1 (various kinases [2]): 15%; % Inhibition Duplicate #2 (various kinases [2]): 12%; % Inhibition (various kinases [3]): 51%; % Inhibition (various kinases [4]): 6% and 4%; % Inhibition (various kinases [5]): 7% and 11%; % Inhibition (various kinases [6]): 1% and 2%; % Inhibition (various kinases [7]): 4% and 10%; % Inhibition (various kinases [8]): 5% and 4%; % Inhibition Average (various kinases [9]): 2%; % Inhibition Duplicate #1 (various kinases [9]): 0%; % Inhibition Duplicate #2 (various kinases [9]): 4%; % Inhibition (various kinases [10]): 12% and 23%; % Inhibition Average (various kinases [11]): 2%; % Inhibition Duplicate #1 (various kinases [11]): 0%; % Inhibition Duplicate #2 (various kinases [11]): 4%; % Inhibition Average (various kinases [12]): 0%; % Inhibition Duplicate #1 (various kinases [12]): -1%; % Inhibition Duplicate #2 (various kinases [12]): 2%; % Inhibition (various kinases [13]): 13% and 16%; % Inhibition Average (various kinases [14]): -3%; % Inhibition Duplicate #1 (various kinases [14]): -10%; % Inhibition Duplicate #2 (various kinases [14]): 3%
